In patent publication US20220125051A1, “PRE-HARVEST DESICCATION METHOD” (SYNGENTA CROP PROTECTION AG, priority 2019, published 2022):
Read-outs that look alike come from different tables or passages of the source.

Tests used:
Assay in all cases: Post-emergence efficacy, Method A
Type in all cases: in vivo
[1] = test system: Eleusine indica (ELEIN); conditions: evaluated after 13 days; for pest or weed control at 500 g/ha: Eleusine indica, post-emergence, 312 h
How it was run: (§1)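 Visual damage score, 0 (no damage) to 100 (total), taken 13 d after spraying. Pot-grown plants at 14 d post-sowing received an aqueous spray from a 50 g/l acetone/IF50 solution diluted in 0.25% or 1% Empicol ESC70 + 1% ammonium sulphate; glasshouse 24/16 °C, 14 h light, 65% RH, watered twice daily.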

[2] = test system: Echinochloa crus-galli (ECHCG); conditions: evaluated after 13 days; for pest or weed control at 500 g/ha: Echinochloa crus-galli, post-emergence, 312 h
How it was run: as §1

[3] = test system: Amaranthus palmeri (AMAPA); conditions: evaluated after 13 days; for pest or weed control at 500 g/ha: Amaranthus palmeri, post-emergence, 312 h
How it was run: as §1

[4] = test system: Ipomoea hederacea (IPOHE); conditions: evaluated after 13 days; for pest or weed control at 500 g/ha: Ipomoea hederacea, post-emergence, 312 h
How it was run: as §1

[5] = test system: Euphorbia heterophylla (EPHHL); conditions: evaluated after 13 days; for pest or weed control at 500 g/ha: Euphorbia heterophylla, post-emergence, 312 h
How it was run: as §1

[6] = test system: Setaria faberi (SETFA); conditions: evaluated after 13 days; for pest or weed control at 500 g/ha: Setaria faberi, post-emergence, 312 h
How it was run: as §1

[7] = test system: Chenopodium album (CHEAL); conditions: evaluated after 13 days; for pest or weed control at 500 g/ha: Chenopodium album, post-emergence, 312 h
How it was run: as §1

[8] = test system: Lolium perenne (LOLPE); conditions: evaluated after 13 days; for pest or weed control at 500 g/ha: Lolium perenne, post-emergence, 312 h
How it was run: as §1

[9] = test system: Digitaria sanguinalis (DIGSA); conditions: evaluated after 13 days; for pest or weed control at 500 g/ha: Digitaria sanguinalis, post-emergence, 312 h
How it was run: as §1

[10] = Application rate 500 g/Ha, 100=total damage to plant, 0=no damage to plant, read-out: Control of weed species after post-emergence application, ELEIN
[11] = Application rate 500 g/Ha, 100=total damage to plant, 0=no damage to plant, read-out: Control of weed species after post-emergence application, ECHCG
[12] = Application rate 500 g/Ha, 100=total damage to plant, 0=no damage to plant, read-out: Control of weed species after post-emergence application, AMAPA
[13] = Application rate 500 g/Ha, 100=total damage to plant, 0=no damage to plant, read-out: Control of weed species after post-emergence application, IPOHE
[14] = Application rate 500 g/Ha, 100=total damage to plant, 0=no damage to plant, read-out: Control of weed species after post-emergence application, EPHHL
[15] = Application rate 500 g/Ha, 100=total damage to plant, 0=no damage to plant, read-out: Control of weed species after post-emergence application, SETFA
[16] = Application rate 500 g/Ha, 100=total damage to plant, 0=no damage to plant, read-out: Control of weed species after post-emergence application, CHEAL
[17] = Application rate 500 g/Ha, 100=total damage to plant, 0=no damage to plant, read-out: Control of weed species after post-emergence application, LOLPE
[18] = Application rate 500 g/Ha, 100=total damage to plant, 0=no damage to plant, read-out: Control of weed species after post-emergence application, DIGSA
[19] = Application Rate 500 g/Ha, Method A, read-out: Control of weed species after post-emergence application, ELEIN (100=total damage to plant; 0=no damage to plant)
[20] = Application Rate 500 g/Ha, Method A, read-out: Control of weed species after post-emergence application, ECHCG (100=total damage to plant; 0=no damage to plant)
[21] = Application Rate 500 g/Ha, Method A, read-out: Control of weed species after post-emergence application, AMAPA (100=total damage to plant; 0=no damage to plant)
[22] = Application Rate 500 g/Ha, Method A, read-out: Control of weed species after post-emergence application, IPOHE (100=total damage to plant; 0=no damage to plant)
[23] = Application Rate 500 g/Ha, Method A, read-out: Control of weed species after post-emergence application, EPHHL (100=total damage to plant; 0=no damage to plant)
[24] = Application Rate 500 g/Ha, Method A, read-out: Control of weed species after post-emergence application, SETFA (100=total damage to plant; 0=no damage to plant)
[25] = Application Rate 500 g/Ha, Method A, read-out: Control of weed species after post-emergence application, CHEAL (100=total damage to plant; 0=no damage to plant)
[26] = Application Rate 500 g/Ha, Method A, read-out: Control of weed species after post-emergence application, LOLPE (100=total damage to plant; 0=no damage to plant)
[27] = Application Rate 500 g/Ha, Method A, read-out: Control of weed species after post-emergence application, DIGSA (100=total damage to plant; 0=no damage to plant)
[28] = Application Rate 500 g/Ha, Method A

Structure (SMILES)	pest or weed control at 500 g/ha [1, 10]	pest or weed control at 500 g/ha [2, 11]	pest or weed control at 500 g/ha [3, 12]	pest or weed control at 500 g/ha [4, 13]	pest or weed control at 500 g/ha [5, 14]	pest or weed control at 500 g/ha [6, 15]	pest or weed control at 500 g/ha [7, 16]	pest or weed control at 500 g/ha [8, 17]	pest or weed control at 500 g/ha [9, 18]	other results
COc1ccnc(-c2cc[n+](CCS(=O)(=O)[O-])nc2)n1 [Compound A13]	100%	50%	100%	50%	70%	60%	50%	50%	70%	–
O=C(O)CC[n+]1ccc(-c2ccc(C(F)(F)F)cn2)cn1 [Compound A200]	–	–	–	–	–	–	–	–	–	pest or weed control at 500 g/ha [1, 19]: 30%; pest or weed control at 500 g/ha [2, 20]: 40%; pest or weed control at 500 g/ha [3, 21]: 100%; pest or weed control at 500 g/ha [4, 22]: 10%; pest or weed control at 500 g/ha [5, 23]: 70%; pest or weed control at 500 g/ha [6, 24]: 50%; pest or weed control at 500 g/ha [7, 25]: 70%; pest or weed control at 500 g/ha [8, 26]: 40%; pest or weed control at 500 g/ha [9, 27]: 40%
O=S(=O)([O-])CC[n+]1ccc(-c2ncccc2F)cn1 [Compound A68]	70%	70%	60%	50%	100%	60%	70%	60%	40%	–
Cc1nccc(-c2cc[n+](CCS(=O)(=O)[O-])nc2)n1 [Compound A31]	80%	60%	100%	100%	50%	50%	100%	60%	90%	–
N[C@@H](CC[n+]1ccc(-c2ncccn2)cn1)C(=O)O [Compound A201, [(1S)-1-carboxy-3-(4-pyrimidin-2-ylpyridazin-1-ium-1-yl)propyl]ammonium 2,2,2-trifluoroacetate]	–	–	–	–	–	–	–	–	–	pest or weed control at 500 g/ha [1, 19]: 100%; pest or weed control at 500 g/ha [2, 20]: 70%; pest or weed control at 500 g/ha [3, 21]: 100%; pest or weed control at 500 g/ha [4, 22]: 40%; pest or weed control at 500 g/ha [5, 23]: 90%; pest or weed control at 500 g/ha [6, 24]: 80%; pest or weed control at 500 g/ha [7, 25]: 100%; pest or weed control at 500 g/ha [8, 26]: 30%; pest or weed control at 500 g/ha [9, 27]: 80%
Cc1cc(=O)[nH]c(-c2cc[n+](CCS(=O)(=O)[O-])nc2)n1 [Compound A95]	30%	50%	30%	30%	40%	50%	40%	20%	40%	–
CO[N-]C(=O)C[n+]1ccc(-c2ncccn2)cn1 [Compound A219]	–	–	–	–	–	–	–	–	–	pest or weed control at 500 g/ha [1, 19]: 100%; pest or weed control at 500 g/ha [2, 20]: 40%; pest or weed control at 500 g/ha [3, 21]: 100%; pest or weed control at 500 g/ha [4, 22]: 60%; pest or weed control at 500 g/ha [5, 23]: 90%; pest or weed control at 500 g/ha [6, 24]: 90%; pest or weed control at 500 g/ha [7, 25]: 80%; pest or weed control at 500 g/ha [8, 26]: 70%; pest or weed control at 500 g/ha [9, 27]: 70%
CCOP(=O)(O)CC[n+]1ccc(-c2ncccn2)cn1 [Compound A113, ethoxy-[2-(4-pyrimidin-2-ylpyridazin-1-ium-1-yl)ethyl]phosphinate]	40%	60%	40%	60%	100%	50%	90%	10%	60%	–
CC(C)(C[n+]1ccc(-c2ncccn2)cn1)S(=O)(=O)[O-] [Compound A114, 2-methyl-1-(4-pyrimidin-2-ylpyridazin-1-ium-1-yl)propane-2-sulfonate]	90%	60%	100%	60%	80%	40%	60%	70%	80%	–
O=S(=O)([O-])CC[n+]1ccc(-c2ccc(C(F)(F)F)nn2)cn1 [Compound A122]	90%	40%	100%	70%	100%	60%	100%	70%	40%	–
O=S(=O)(O)CC[n+]1ccc(-c2cccnc2)cn1 [Compound A179]	–	–	–	–	–	–	–	–	–	Control of weed species after post-emergence application, ELEIN (100=total damage to plant; 0=no damage to plant) [1, 28]: 50; Control of weed species after post-emergence application, ECHCG (100=total damage to plant; 0=no damage to plant) [2, 28]: 40; Control of weed species after post-emergence application, AMAPA (100=total damage to plant; 0=no damage to plant) [3, 28]: 30; Control of weed species after post-emergence application, IPOHE (100=total damage to plant; 0=no damage to plant) [4, 28]: 20; Control of weed species after post-emergence application, EPHHL (100=total damage to plant; 0=no damage to plant) [5, 28]: 60; Control of weed species after post-emergence application, SETFA (100=total damage to plant; 0=no damage to plant) [6, 28]: 60; Control of weed species after post-emergence application, CHEAL (100=total damage to plant; 0=no damage to plant) [7, 28]: 30; Control of weed species after post-emergence application, LOLPE (100=total damage to plant; 0=no damage to plant) [8, 28]: 10; Control of weed species after post-emergence application, DIGSA (100=total damage to plant; 0=no damage to plant) [9, 28]: 50
O=C([O-])CC[n+]1ccc(-c2ncccc2F)cn1 [Compound A67]	70%	80%	60%	20%	80%	70%	50%	40%	60%	–
OCCC[n+]1ccc(-c2ncccn2)cn1 [Compound A206]	–	–	–	–	–	–	–	–	–	pest or weed control at 500 g/ha [1, 19]: 10%; pest or weed control at 500 g/ha [2, 20]: 20%; pest or weed control at 500 g/ha [3, 21]: 60%; pest or weed control at 500 g/ha [4, 22]: 20%; pest or weed control at 500 g/ha [5, 23]: 60%; pest or weed control at 500 g/ha [6, 24]: 10%; pest or weed control at 500 g/ha [7, 25]: 90%; pest or weed control at 500 g/ha [8, 26]: 0%; pest or weed control at 500 g/ha [9, 27]: 20%
O=C(O)CC[n+]1ccc(-c2ncc(C(F)(F)F)cn2)cn1 [Compound A129]	40%	90%	70%	10%	70%	60%	50%	80%	60%	–
